{"source": "PubChem BioAssay AID1996", "data": [{"settings": "buffer; pH 7.4; 200.0 µM", "units": {"solubility kinetic": "µg/mL"}, "values": [{"smiles": "Cc1ccc(NC(=O)CSc2nc3sc(C)cc3c(=O)n2C)cc1", "solubility kinetic": "< 0.3"}, {"smiles": "CCCN(CC(=O)Nc1ccccc1OC)C(=O)c1cc2ccccc2o1", "solubility kinetic": 25.5}, {"smiles": "O=C(Nc1cccc(S(=O)(=O)NC2=NCCC2)c1)c1ccc(F)cc1F", "solubility kinetic": 25.8}, {"smiles": "CCN(C(=O)COc1ccc(N(C)S(=O)(=O)c2ccc(NC(C)=O)cc2)cc1)C1CCCCC1", "solubility kinetic": 18.9}, {"smiles": "O=[N+]([O-])c1cccnc1Sc1ccccc1Cl", "solubility kinetic": 1.7}, {"smiles": "CSc1ncccc1C(=O)OCC(=O)NC1CCC(C)CC1", "note": "(centres undefined)", "solubility kinetic": 16.4}, {"smiles": "CNS(=O)(=O)Cc1ccc2[nH]cc(CCN(C)C)c2c1", "solubility kinetic": 40.3}, {"smiles": "CNC(=O)/C(C#N)=C/c1c(N2CCN(C)CC2)nc2c(C)cccn2c1=O", "solubility kinetic": "> 55"}, {"smiles": "CN(CC#CC(O)(c1ccccc1)c1ccccc1)C(C)(C)C", "solubility kinetic": "> 46.1"}, {"smiles": "Cc1cc(C)c(C)c(OCCCCN2CCCCC2)c1", "solubility kinetic": 29.4}, {"smiles": "O=C(OCC(=O)N1CCCCC1)c1cc(S(=O)(=O)N2CCOCC2)c(Cl)cc1Cl", "solubility kinetic": 67.7}, {"smiles": "Cn1c(=O)[nH]c2ncn(C)c2c1=O", "solubility kinetic": "> 27"}, {"smiles": "Cc1ccc(S(=O)(=O)N2CCOCC2)cc1C(=O)OCC(=O)N1CCCCC1", "solubility kinetic": "> 61.6"}, {"smiles": "COc1ccc(CNC(=S)Nc2ccc(F)c(Cl)c2)cc1", "solubility kinetic": 1.8}, {"smiles": "CCc1ccc(C(=O)CN2C(=O)NC3(CCc4ccccc43)C2=O)cc1", "note": "(centres undefined)", "solubility kinetic": 6.5}, {"smiles": "O=C(COC(=O)c1ccccc1Br)NC1CCCCCCC1", "solubility kinetic": 25.1}, {"smiles": "CC(C)CCNC(=O)c1ccc(-n2cnc3cccnc32)cc1", "solubility kinetic": "> 46.3"}, {"smiles": "C=CCn1c(O)c(C(C)=NCCCn2ccnc2)c(=O)[nH]c1=O", "solubility kinetic": "> 47.6"}, {"smiles": "CC(=O)Nc1ccc2c(c1)nc(C)n2Cc1ccccc1", "solubility kinetic": "> 41.9"}, {"smiles": "N#Cc1ccc(NC(=O)c2cc(=O)c3ccccc3o2)cc1", "solubility kinetic": 0.8}, {"smiles": "COC(=O)c1sccc1NC(=S)N1C(C)CCCC1C", "note": "(centres undefined)", "solubility kinetic": 20.3}, {"smiles": "Cc1onc(-c2ccccc2)c1C(=O)NCC(O)c1ccccc1", "note": "(centres undefined)", "solubility kinetic": "> 48.4"}, {"smiles": "CCOC(=O)C(Cc1ccc(Cl)cc1Cl)c1ccno1", "note": "(centres undefined)", "solubility kinetic": 11.7}, {"smiles": "C[N+](C)(C)CCOC(=O)CBr.[Br-]", "solubility kinetic": "> 45.8"}, {"smiles": "CC(C)CNC(=O)N[C@@H](CC(C)C)C(=O)O", "solubility kinetic": "> 34.5"}, {"smiles": "NS(=O)(=O)c1cccc(NC(=O)COC(=O)/C=C/c2nc3ccccc3s2)c1", "solubility kinetic": 22.8}, {"smiles": "CC(=O)N1CCN(C(=O)c2cc(C)nc3ccccc23)CC1", "solubility kinetic": 33.7}, {"smiles": "CC(=O)NC(CC(=O)NCCOc1ccccc1F)c1ccccc1", "note": "(centres undefined)", "solubility kinetic": "> 51.7"}, {"smiles": "Cc1onc(-c2ccccc2)c1C(=O)NCc1ccc(Cl)cc1", "solubility kinetic": 1.3}, {"smiles": "Fc1ccc(-c2ncc3ccccn23)cc1", "solubility kinetic": 14.3}, {"smiles": "Br.CCCCCCCCCCn1ccc(=N)cc1", "solubility kinetic": "> 47.3"}, {"smiles": "O=S(=O)(c1cccc2nsnc12)N1CCNCC1", "solubility kinetic": "> 42.7"}, {"smiles": "COC(=O)c1ccc(S(=O)(=O)N2CCN(C)CC2)n1C", "solubility kinetic": "> 45.2"}, {"smiles": "COc1ccc(C(=O)NC2CCCc3ccccc32)c(OC)c1OC", "note": "(centres undefined)", "solubility kinetic": 41.9}, {"smiles": "O=C(CCc1c[nH]c2ccccc12)Nc1ncccc1O", "solubility kinetic": "> 42.2"}, {"smiles": "COc1ccc(C(=O)CC(=O)C(=O)Nc2ccc(C)c(C)c2)cc1", "solubility kinetic": 12.4}, {"smiles": "CC(C)N1CCN(Cc2ccsc2)CC1CCO", "note": "(centres undefined)", "solubility kinetic": "> 40.3"}, {"smiles": "O=[N+]([O-])c1ccc(N2CCN(c3ccccc3)CC2)nc1", "solubility kinetic": 0.6}, {"smiles": "COCc1cc(C)nc(SCc2ccc([N+](=O)[O-])cc2)c1C#N", "solubility kinetic": 5.2}, {"smiles": "Cc1ccc2[nH]c(=O)c(COC(=O)C3CCCCC3)cc2c1", "solubility kinetic": 2.9}, {"smiles": "COc1ccc(CNC(=O)COc2ccc(F)cc2)cc1", "solubility kinetic": "> 43.4"}, {"smiles": "O=C1C2C3C=CC(CC3)C2C(=O)N1c1ccc(Cl)cc1Cl", "note": "(centres undefined)", "solubility kinetic": 9.7}, {"smiles": "O=C(NC1CCCCCC1)C(Cc1ccccc1)n1cccc1", "note": "(centres undefined)", "solubility kinetic": 10.6}, {"smiles": "Nc1c(C(=O)N2CCCC2)sc2nc(-c3ccccc3)ccc12", "solubility kinetic": 2.1}, {"smiles": "O=[N+]([O-])C(C1CCS(=O)(=O)C1)C1CCS(=O)(=O)C1", "note": "(centres undefined)", "solubility kinetic": 41.8}, {"smiles": "CC(C)(C)c1cc(CCC(=O)NCC2CCCO2)cc(C(C)(C)C)c1O", "note": "(centres undefined)", "solubility kinetic": 20.2}, {"smiles": "CC(C)(C)c1cc(C(=O)N2CCc3ccccc3C2)ccn1", "solubility kinetic": "> 44.2"}, {"smiles": "CC(=O)N1CCN(c2ccc(NC(=O)c3ccc(F)cc3)cc2)CC1", "solubility kinetic": 10.6}, {"smiles": "O=Cc1cnc(N2CCN(Cc3ccccc3)CC2)s1", "solubility kinetic": "> 43.1"}, {"smiles": "CCOc1ccc(NC(=O)c2ccc3[nH]c(=O)c(=O)[nH]c3c2)cc1", "solubility kinetic": 4.8}, {"smiles": "CC1=CC(C)(C)NC(=S)N1c1ccccc1C", "solubility kinetic": 13.6}, {"smiles": "CCOc1ccc2nc(SCC(=O)NCC3CCCO3)sc2c1", "note": "(centres undefined)", "solubility kinetic": "> 52.9"}, {"smiles": "COc1ccccc1CCn1c(N)cc(=O)[nH]c1=O", "solubility kinetic": "> 39.2"}, {"smiles": "N#Cc1ccc(/C=C/C(=O)c2ccc3c(c2)OCO3)cc1", "solubility kinetic": 2.9}, {"smiles": "Cc1ccc(NC(=O)COC(=O)C2C3CC4OC(=O)C2C4C3)cc1", "note": "(centres undefined)", "solubility kinetic": 47.3}, {"smiles": "Cc1ncc([N+](=O)[O-])n1CC(=O)N/N=C/c1ccccc1F", "solubility kinetic": "> 45.8"}, {"smiles": "O=C(NCCc1ccccc1)C(=S)N1CCCCC1", "solubility kinetic": "> 41.5"}, {"smiles": "Cc1ccc(C)c(NC(=O)c2cc3ccccc3o2)c1", "solubility kinetic": 10.9}, {"smiles": "O=C(NC(=S)NCCO)c1sc2ccccc2c1Cl", "solubility kinetic": 1.8}]}]}
